Measurements: patent US20250120932A1, “PHARMACEUTICAL COMPOSITION” (NEUROPRO THERAPEUTICS, INC., priority 2021, published 2025)
Where “and” joins values, the source holds several entries; their conditions need not be identical. Equal values may be shown once.

What was measured:
[1] = Pharmacokinetic study in cynomolgus monkeys after oral (nasogastric) gavage, sublingual and intravenous administration; type: in vivo; settings: monkey, individual animals
Protocol: A pharmacokinetic study was done in cynomolgus monkeys following single oral (nasogastric) gavage, sublingual, and intravenous administration. […] Calibration curves, blanks, and analytical QCs were prepared in monkey plasma (K2EDTA). The extracts were evaporated to dryness, reconstituted, and then analyzed by LC-MS/MS. The calibration range was 0.250-250 ng/mL for both analytes.
If the criteria for either the calibration curve or the analytical QCs were not met, the analytical run was rejected. […] No deviations were found during the bioanalytical phase of the study conducted by Origin. Calibration curves were derived from the individual analyte to internal standard peak area ratios using the least squared regression of the ratio versus the nominal concentration of the calibration standard, prepared in duplicate. The regression was then used to back-calculate the concentration of each calibration standard, QC sample and study sample. […] Analyst® Software Version 1.6.3 (Applied Biosystems-MDS Sciex), operated with Windows® (Microsoft), was used for instrument control, data acquisition, and peak integrations. Peak area ratios, standard curve regressions, and sample concentration/accuracy values were calculated with Analyst® Software Version 1.6.3. Other results (e.g., mean statistics) were calculated with Excel® (Microsoft).
There was no apparent sex difference for the second formulation. […] A fourth formulation comprising the composition B listed in Table 54 was also administered in monheys.

[2] = Oral delivery of unformulated Bumetanide Dibenzylamide in Beagle dogs, pharmacokinetics and bioavailability; type: in vivo

- Plasma Bumetanide Dibenzylamide concentration ([1]; NG 30 mg/kg, Second Formulation (Form 3), 0.00 h, male monkeys): 0.00 ng/mL
- Plasma Bumetanide Dibenzylamide concentration ([1]; NG 30 mg/kg, Second Formulation (Form 3), 0.25 h, female monkeys): 0.619 ng/mL and 0.261 ng/mL
- Plasma Bumetanide Dibenzylamide concentration ([1]; NG 30 mg/kg, Second Formulation (Form 3), 0.25 h, male monkeys): 0.250 ng/mL and 0.00 ng/mL
- Plasma Bumetanide Dibenzylamide concentration ([1]; NG 30 mg/kg, Second Formulation (Form 3), 0.50 h, female monkeys): 4.98 ng/mL and 1.71 ng/mL
- Plasma Bumetanide Dibenzylamide concentration ([1]; NG 30 mg/kg, Second Formulation (Form 3), 0.50 h, male monkeys): 1.55 ng/mL and 3.16 ng/mL
- Plasma Bumetanide Dibenzylamide concentration ([1]; NG 30 mg/kg, Second Formulation (Form 3), 1.00 h, female monkeys): 20.2 ng/mL and 7.09 ng/mL
- Plasma Bumetanide Dibenzylamide concentration ([1]; NG 30 mg/kg, Second Formulation (Form 3), 1.00 h, male monkeys): 7.56 ng/mL and 11.3 ng/mL
- Plasma Bumetanide Dibenzylamide concentration ([1]; NG 30 mg/kg, Second Formulation (Form 3), 2.00 h, female monkeys): 79.3 ng/mL and 37.8 ng/mL
- Plasma Bumetanide Dibenzylamide concentration ([1]; NG 30 mg/kg, Second Formulation (Form 3), 2.00 h, male monkeys): 16.8 ng/mL and 82.5 ng/mL
- Plasma Bumetanide Dibenzylamide concentration ([1]; NG 30 mg/kg, Second Formulation (Form 3), 4.00 h, female monkeys): 140 ng/mL and 247 ng/mL
- Plasma Bumetanide Dibenzylamide concentration ([1]; NG 30 mg/kg, Second Formulation (Form 3), 4.00 h, male monkeys): 126 ng/mL and 410 ng/mL
- Plasma Bumetanide Dibenzylamide concentration ([1]; NG 30 mg/kg, Second Formulation (Form 3), 8.00 h, female monkeys): 457 ng/mL and 674 ng/mL
- Plasma Bumetanide Dibenzylamide concentration ([1]; NG 30 mg/kg, Second Formulation (Form 3), 8.00 h, male monkeys): 785 ng/mL
- Plasma Bumetanide Dibenzylamide concentration ([1]; NG 30 mg/kg, Second Formulation (Form 3), 24.00 h, female monkeys): 9.30 ng/mL and 10.7 ng/mL
- Plasma Bumetanide Dibenzylamide concentration ([1]; NG 30 mg/kg, Second Formulation (Form 3), 24.00 h, male monkeys): 26.4 ng/mL and 8.13 ng/mL
- Plasma Bumetanide Dibenzylamide concentration ([1]; NG 30 mg/kg, Second Formulation (Form 3), 32.00 h, female monkeys): 1.63 ng/mL and 1.62 ng/mL
- Plasma Bumetanide Dibenzylamide concentration ([1]; NG 30 mg/kg, Second Formulation (Form 3), 32.00 h, male monkeys): 6.41 ng/mL and 2.08 ng/mL
- Plasma Bumetanide Dibenzylamide concentration ([1]; SL, dose column 5 mg/kg (title 30 mg/kg), Fourth Formulation (Form 2), 4.0 h): 0.00 ng/mL
- Plasma Bumetanide Dibenzylamide concentration ([1]; SL, dose column 5 mg/kg (title 30 mg/kg), Fourth Formulation (Form 2), 8.0 h): 0.380 ng/mL
- Plasma Bumetanide Dibenzylamide concentration ([1]; SL, dose column 5 mg/kg (title 30 mg/kg), Fourth Formulation (Form 2), 24.0 h): 0.363 ng/mL
- Plasma Bumetanide Dibenzylamide concentration ([1]; SL, dose column 5 mg/kg (title 30 mg/kg), Fourth Formulation (Form 2), 32.0 h): 0.00 ng/mL
- bioavailability ([2]; Beagle, dog, in vivo, 30 mg, oral non-formulated, read-out: Absolute Bioavailability): ~5.1%
- concentration at 0.5 h ([2]; Beagle, dog, plasma, oral, 30 mg/kg, Plasma Bumetanide Dibenzylamide concentration, oral non-formulated 30 mg/kg, 0.5 h): 2.99 ng/mL
- concentration at 4 h ([2]; Beagle, dog, plasma, oral, 30 mg/kg, Plasma Bumetanide Dibenzylamide concentration, oral non-formulated 30 mg/kg, 4 h): 149 ng/mL
- concentration at 6 h ([2]; Beagle, dog, plasma, oral, 30 mg/kg, Plasma Bumetanide Dibenzylamide concentration, oral non-formulated 30 mg/kg, 6 h): 151 ng/mL
- concentration at 8 h ([2]; Beagle, dog, plasma, oral, 30 mg/kg, Plasma Bumetanide Dibenzylamide concentration, oral non-formulated 30 mg/kg, 8 h): 101 ng/mL
- concentration at 12 h ([2]; Beagle, dog, plasma, oral, 30 mg/kg, Plasma Bumetanide Dibenzylamide concentration, oral non-formulated 30 mg/kg, 12 h): 40.1 ng/mL
- Plasma Bumetanide Dibenzylamide concentration ([2]; oral non-formulated 30 mg/kg, 0.5 h): 2.17 ng/mL
- Plasma Bumetanide Dibenzylamide concentration ([2]; oral non-formulated 30 mg/kg, 0.5 h, mean): 2.58 ng/mL
- Plasma Bumetanide Dibenzylamide concentration ([2]; oral non-formulated 30 mg/kg, 4 h): 136 ng/mL
- Plasma Bumetanide Dibenzylamide concentration ([2]; oral non-formulated 30 mg/kg, 4 h, mean): 143 ng/mL
- Plasma Bumetanide Dibenzylamide concentration ([2]; oral non-formulated 30 mg/kg, 6 h): 153 ng/mL
- Plasma Bumetanide Dibenzylamide concentration ([2]; oral non-formulated 30 mg/kg, 6 h, mean): 152 ng/mL
- Plasma Bumetanide Dibenzylamide concentration ([2]; oral non-formulated 30 mg/kg, 8 h): 132 ng/mL
- Plasma Bumetanide Dibenzylamide concentration ([2]; oral non-formulated 30 mg/kg, 8 h, mean): 117 ng/mL
- Plasma Bumetanide Dibenzylamide concentration ([2]; oral non-formulated 30 mg/kg, 12 h): 50.5 ng/mL
- Plasma Bumetanide Dibenzylamide concentration ([2]; oral non-formulated 30 mg/kg, 12 h, mean): 45.3 ng/mL
Compound: CCCCNc1cc(C(=O)N(Cc2ccccc2)Cc2ccccc2)cc(S(N)(=O)=O)c1Oc1ccccc1 [Bumetanide Dibenzylamide, N, N-dibenzyl 3-aminosulfonyl-5-butylamino-4-phenoxybenzamide]
